pIC50: −log10 of the molar value.
tested on: FOXC2-expressing HMLER cells; experiment: Cell Titer Glo viability of FOXC2-HMLER cells (high throughput screen and 10-point response); format: cell-based; settings: Homo sapiens; scored relative to parent compound 2; 72 hours; read-out: Activity Score, inhibition of FOXC2-expressing HMLER cells by Formula II compounds
Description: For high throughput screening, FOXC2-HMLER and HMLER cells were plated at 10^3 cells per well in white 384-well plates in 50 μL of MEGM medium (Lonza). Cells were allowed to attach for one hour before compound was transferred to each well as a DMSO solution using a 100 nL pintool head affixed to a PerkinElmer FX instrument. After 72-hour incubation, 30 μL of a Cell Titer Glo solution (diluted 1:6 in water, Promega) was dispensed into each well and luminance values were recorded using an Envision plate reader. […] All other miniaturized, selective viability experiments were performed as above using the indicated growth medium.
More specifically, in the high throughput screening assay above, each cell line was plated at 1,000 cells per well in 384-well plates, treated for 72 hours with 2 μM of test compound, and the viability of each line was determined in parallel by Cell Titer Glo (Promega) luminance measurements.

SMILES | pIC50
COc1ccc2cc(CNc3ccc(C)cc3)c(=O)n(CC(=O)Nc3ccc(C)cc3)c2c1 [Compound 2AY] | < 4.70
COc1ccc(NCc2cc3ccc(OC)cc3n(CC(=O)Nc3ccccc3)c2=O)cc1 [Compound 2AZ] | < 4.70
CCc1ccc(NCc2cc3cc4c(cc3n(CC(=O)Nc3c(C)cccc3C)c2=O)OCCO4)cc1 [Compound 2A] | > 6.00
COc1ccc2cc(CNc3ccccc3)c(=O)n(CC(=O)Nc3ccc(C)cc3Cl)c2c1 [Compound 2BA] | < 4.70
COc1cccc(CNC(=O)Cn2c(=O)c(CNc3ccccc3)cc3ccc(OC)cc32)c1 [Compound 2BB] | < 4.70
COc1ccc2cc(CNc3ccccc3)c(=O)n(CC(=O)Nc3c(C)cc(C)cc3C)c2c1 [Compound 2BC] | < 4.70
COc1ccc(NCc2cc3cc(OC)c(OC)cc3n(CC(=O)Nc3ccc(C)cc3)c2=O)cc1 [Compound 2BD] | < 4.70
COc1ccc2c(c1)cc(CNc1ccc(OC)c(OC)c1)c(=O)n2CC(=O)Nc1ccccc1C [Compound 2BE] | < 4.70
CC(=O)c1cccc(NC(=O)Cn2c(=O)c(CNc3ccc(C)cc3)cc3cc4c(cc32)OCCO4)c1 [Compound 2BF] | < 4.70
CCOC(=O)c1cccc(NC(=O)Cn2c(=O)c(CNc3ccccc3)cc3ccc(OC)cc32)c1 [Compound 2BG] | < 4.70
COc1ccc2cc(CNc3ccccc3)c(=O)n(CC(=O)Nc3ccc(F)cc3)c2c1 [Compound 2BH] | < 4.70
COc1ccc(CNC(=O)Cn2c(=O)c(CNc3ccccc3)cc3ccc(OC)cc32)cc1 [Compound 2BI] | < 4.70
COc1ccc2cc(CNc3ccc(C)cc3)c(=O)n(CC(=O)Nc3cc(C)cc(C)c3)c2c1 [Compound 2BJ] | < 4.70
COc1ccc(NCc2cc3ccc(OC)cc3n(CC(=O)Nc3ccc(F)cc3)c2=O)cc1 [Compound 2BK] | < 4.70
CCc1ccccc1NC(=O)Cn1c(=O)c(CNc2ccccc2)cc2ccc(OC)cc21 [Compound 2BL] | < 4.70
COc1ccc(NCc2cc3ccc(C)cc3n(CC(=O)Nc3cccc(C)c3)c2=O)cc1OC [Compound 2BM] | < 4.70
CCc1ccc(NC(=O)Cn2c(=O)c(CNc3ccccc3)cc3ccc(OC)cc32)cc1 [Compound 2BN] | < 4.70
COc1ccc(NCc2cc3cc4c(cc3n(CC(=O)Nc3ccccc3C)c2=O)OCCO4)cc1 [Compound 2BO] | < 4.70
COc1ccc(NCc2cc3cc4c(cc3n(CC(=O)Nc3ccc(C)cc3)c2=O)OCCO4)cc1 [Compound 2BP] | < 4.70
COc1ccc(NC(=O)Cn2c(=O)c(CNc3ccc(C)cc3)cc3cc(OC)c(OC)cc32)cc1 [Compound 2BQ] | < 4.70
COc1ccc2cc(CNc3ccccc3)c(=O)n(CC(=O)Nc3cccc(F)c3)c2c1 [Compound 2BR] | < 4.70
COc1ccc2cc(CNc3ccccc3)c(=O)n(CC(=O)Nc3cc(Cl)ccc3OC)c2c1 [Compound 2BS] | < 4.70
CCc1ccc(NCc2cc3ccc(OC)cc3n(CC(=O)Nc3cccc(Cl)c3)c2=O)cc1 [Compound 2BT] | < 4.70
COc1cccc(NC(=O)Cn2c(=O)c(CNc3ccc(C)cc3)cc3cc(OC)c(OC)cc32)c1 [Compound 2BU] | < 4.70
COc1ccc(NCc2cc3ccc(OC)cc3n(CC(=O)Nc3ccccc3C)c2=O)cc1 [Compound 2BV] | < 4.70

SMILES | pIC50
COc1ccc2cc(CNc3ccccc3)c(=O)n(CC(=O)Nc3ccc(Br)cc3)c2c1 [Compound 2BW] | < 4.70
COc1ccc2cc(CNc3ccccc3)c(=O)n(CC(=O)Nc3cccc(Cl)c3)c2c1 [Compound 2BX] | < 4.70
COc1cccc(NC(=O)Cn2c(=O)c(CNc3ccccc3)cc3cc4c(cc32)OCCO4)c1 [Compound 2BY] | < 4.70
COc1ccc2cc(CNc3ccc(C)cc3)c(=O)n(CC(=O)Nc3cccc(C(F)(F)F)c3)c2c1 [Compound 2BZ] | < 4.70
CCOc1ccccc1NC(=O)Cn1c(=O)c(CNc2ccc(CC)cc2)cc2ccc(OC)cc21 [Compound 2B] | > 6.00
COc1ccc2cc(CNc3ccccc3)c(=O)n(CC(=O)Nc3ccc(Cl)cc3)c2c1 [Compound 2CA] | < 4.70
COc1cc2cc(CNc3ccccc3)c(=O)n(CC(=O)Nc3ccc(C)cc3C)c2cc1OC [Compound 2CB] | < 4.70
COc1ccc2cc(CNc3ccccc3)c(=O)n(CC(=O)Nc3cc(Cl)ccc3C)c2c1 [Compound 2CC] | < 4.70
Cc1ccc(NCc2cc3cc4c(cc3n(CC(=O)Nc3cc(C)ccc3C)c2=O)OCCO4)cc1 [Compound 2CD] | < 4.70
COc1ccc2cc(CNc3ccc(C)cc3)c(=O)n(CC(=O)Nc3ccc4c(c3)OCCO4)c2c1 [Compound 2CE] | < 4.70
CCc1ccc(NCc2cc3cc(OC)c(OC)cc3n(CC(=O)Nc3ccccc3)c2=O)cc1 [Compound 2CF] | < 4.70
COc1cc2cc(CNc3ccccc3)c(=O)n(CC(=O)Nc3ccc(F)cc3)c2cc1OC [Compound 2CG] | < 4.70
CCc1cccc(NC(=O)Cn2c(=O)c(CNc3ccccc3)cc3ccc(OC)cc32)c1 [Compound 2CH] | < 4.70
CCc1ccc(NCc2cc3cc4c(cc3n(CC(=O)Nc3ccc(CC)cc3)c2=O)OCCO4)cc1 [Compound 2CI] | < 4.70
COc1cc2cc(CNc3ccc(C)cc3)c(=O)n(CC(=O)Nc3ccc(C(C)C)cc3)c2cc1OC [Compound 2CJ] | < 4.70
COc1ccc2cc(CNc3ccccc3)c(=O)n(CC(=O)Nc3ccc(C)c(C)c3)c2c1 [Compound 2CK] | < 4.70
CCc1ccc(NC(=O)Cn2c(=O)c(CNc3ccccc3)cc3cc(OC)c(OC)cc32)cc1 [Compound 2CL] | < 4.70
COc1ccc(OC)c(NC(=O)Cn2c(=O)c(CNc3ccccc3)cc3ccc(C)cc32)c1 [Compound 2CM] | < 4.70
COc1cccc(NC(=O)Cn2c(=O)c(CNc3ccccc3)cc3cc(OC)c(OC)cc32)c1 [Compound 2CN] | < 4.70
COc1ccc2cc(CNc3ccccc3)c(=O)n(CC(=O)Nc3ccc(C)c(Cl)c3)c2c1 [Compound 2CO] | < 4.70
CCc1ccc(NCc2cc3ccc(OC)cc3n(CC(=O)Nc3ccccc3C)c2=O)cc1 [Compound 2CP] | < 4.70
CCOc1ccc(NC(=O)Cn2c(=O)c(CNc3ccccc3)cc3ccc(C)cc32)cc1 [Compound 2CQ] | < 4.70
COc1ccc(NC(=O)Cn2c(=O)c(CNc3ccc(C)cc3)cc3cc4c(cc32)OCCO4)cc1 [Compound 2CR] | < 4.70
COc1ccc2cc(CNc3ccccc3)c(=O)n(CC(=O)Nc3ccccc3OC)c2c1 [Compound 2CS] | < 4.70
CCc1ccc(NCc2cc3ccc(OC)cc3n(CC(=O)Nc3ccc(C)c(C)c3)c2=O)cc1 [Compound 2CT] | < 4.70

SMILES | pIC50
CCc1ccc(NC(=O)Cn2c(=O)c(CNc3ccc(C)cc3)cc3ccc(OC)cc32)cc1 [Compound 2CU] | < 4.70
CCOc1ccc(NC(=O)Cn2c(=O)c(CNc3ccc(OC)cc3)cc3ccc(OC)cc32)cc1 [Compound 2CV] | < 4.70
CCc1ccc(NCc2cc3ccc(OC)cc3n(CC(=O)Nc3ccc(CC)cc3)c2=O)cc1 [Compound 2CW] | < 4.70
COc1ccc2cc(CNc3ccccc3)c(=O)n(CC(=O)Nc3ccc(C(C)=O)cc3)c2c1 [Compound 2CX] | < 4.70
COc1cc(NC(=O)Cn2c(=O)c(CNc3ccc(C)cc3)cc3ccc(OC)cc32)cc(OC)c1 [Compound 2CY] | < 4.70
COc1cc2cc(CNc3ccccc3)c(=O)n(CC(=O)Nc3ccccc3C)c2cc1OC [Compound 2CZ] | < 4.70
CCOC(=O)c1ccccc1NC(=O)Cn1c(=O)c(CNc2ccccc2)cc2ccc(OC)cc21 [Compound 2C] | > 6.00
Cc1ccc(NCc2cc3cc4c(cc3n(CC(=O)Nc3ccccc3)c2=O)OCCO4)cc1 [Compound 2DA] | < 4.70
COc1ccc2cc(CNc3ccccc3)c(=O)n(CC(=O)Nc3ccccc3Cl)c2c1 [Compound 2DB] | < 4.70
CC(=O)c1ccc(NC(=O)Cn2c(=O)c(CNc3ccc(C)cc3)cc3cc4c(cc32)OCCO4)cc1 [Compound 2DC] | < 4.70
COc1ccc2cc(CNc3ccccc3)c(=O)n(CC(=O)Nc3ccccc3F)c2c1 [Compound 2DD] | < 4.70
CCc1ccc(NCc2cc3cc(OC)c(OC)cc3n(CC(=O)Nc3cccc(C)c3)c2=O)cc1 [Compound 2DE] | < 4.70
COc1ccc2cc(CNc3ccc(C)cc3)c(=O)n(CC(=O)Nc3ccc(F)cc3F)c2c1 [Compound 2DF] | < 4.70
Cc1ccc(NCc2cc3cc4c(cc3n(CC(=O)Nc3cccc(C)c3)c2=O)OCCO4)cc1 [Compound 2DG] | < 4.70
COc1ccc(NC(=O)Cn2c(=O)c(CNc3ccccc3)cc3ccc(OC)cc32)cc1 [Compound 2DH] | < 4.70
COc1cc2cc(CNc3ccc(C)cc3)c(=O)n(CC(=O)Nc3ccc(C)c(C)c3)c2cc1OC [Compound 2DI] | < 4.70
COc1cc2cc(CNc3ccc(C)cc3)c(=O)n(CC(=O)Nc3cc(C)cc(C)c3)c2cc1OC [Compound 2DJ] | < 4.70
CCc1ccc(NCc2cc3cc(OC)c(OC)cc3n(CC(=O)Nc3ccccc3C)c2=O)cc1 [Compound 2DK] | < 4.70
CCc1ccc(NC(=O)Cn2c(=O)c(CNc3ccc(OC)cc3)cc3ccc(OC)cc32)cc1 [Compound 2DL] | < 4.70
COc1ccc2cc(CNc3ccccc3)c(=O)n(CC(=O)Nc3ccccc3)c2c1 [Compound 2DM] | < 4.70
COc1ccc2cc(CNc3ccc(C)cc3)c(=O)n(CC(=O)Nc3cccc(F)c3)c2c1 [Compound 2DN] | < 4.70
COc1ccc(NC(=O)Cn2c(=O)c(CNc3ccccc3)cc3cc(OC)c(OC)cc32)cc1 [Compound 2DO] | < 4.70
COc1cc2cc(CNc3ccccc3)c(=O)n(CC(=O)Nc3cc(Cl)ccc3C)c2cc1OC [Compound 2DP] | < 4.70
